Measurements from patent publication US10000471B2, “Pyrazole P38 map kinase inhibitors” (Respivert Limited, priority 2010, dated 2018).

Tests used:
[1] = tested on: IL-8 release in d-U937 cells; test: LPS-induced IL-8 release in d-U937 cells; format: cell-based, human; conditions: Homo sapiens, dU937
Method in brief: (§1)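 PMA-differentiated (100 ng/ml, 48–72 hr) U937 macrophage-type cells pre-incubated 2 hr with compound, then stimulated 4 hr with 0.1 μg/mL E. coli O111:B4 LPS; supernatant TNFα and IL-8 measured by sandwich ELISA. TNFα inhibition expressed relative to 10 μg/mL BIRB796, giving REC50; IL-8 inhibition versus vehicle, giving IC50.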

[2] = tested on: Differentiated U937 cells; test: Cell viability MTT assay; format: cell-based, human; conditions: negative = apparent increase in viability; for MTT Assay (Viability) 4 h d-U937, percentage loss of cell viability: 4 hr in 5% FCS; for MTT Assay (Viability) 24 h d-U937, percentage loss of cell viability: 24 h in 10% FCS
Method in brief: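 Differentiated U937 cells pre-incubated with compound either 4 hr in 5% FCS or 24 h in 10% FCS, then 1 hr MTT. Formazan dissolved in DMSO, absorbance at 550 nm. Percentage viability loss relative to 0.5% DMSO vehicle; apparent increases appear as negative percentages.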

[3] = tested on: TNFα release in THP-1 cells; test: LPS-induced TNFα release in THP-1 cells; format: cell-based, human; conditions: Homo sapiens
Method in brief: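 Human monocytic THP-1 cells stimulated with 3 μg/mL E. coli LPS for 4 hr; supernatant TNFα measured by sandwich ELISA. Inhibition at each concentration versus vehicle control, IC50 from concentration-response curve.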

[4] = tested on: TNFα release in d-U937 cells; test: LPS-induced TNFα release in d-U937 cells; format: cell-based, human; conditions: Homo sapiens, dU937, relative to 10 μg/mL BIRB796, read-out: LPS/TNFα REC50 d-U937
Method in brief: as §1

[5] = tested on: ICAM-1 induction in BEAS2B cells; test: Poly I:C-induced ICAM-1 induction in BEAS2B cells; format: cell-based, human; conditions: Homo sapiens, BEAS-2B, read-out: PolyIC/ICAM1 IC50 BEAS2B
Method in brief: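 Human bronchial epithelial BEAS2B cells were pre-incubated with compound for 2 hr, then transfected with 1 μg/mL poly I:C. After 18 hr, surface ICAM-1 was measured by cell-based ELISA (OD450-655) and normalized to crystal violet cell counts (OD595). IC50 came from inhibition versus vehicle across the concentration-response curve.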

[6] = target: T1, p38 MAPKα isoform (MAPK14) (Homo sapiens, UniProt Q16539); test: Enzyme inhibition assay (FRET, Z-LYTE), p38 MAPKα via MAPKAP-K2 activation; format: biochemical; conditions: read-out: Enzyme Inhibition IC50 p38α
T1 construct: purchased Invitrogen
Method in brief: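 Recombinant p38 MAPKα was preincubated with compound for 2 h at RT. Its activity was measured indirectly through activation/phosphorylation of downstream MAPKAP-K2, with a Z-LYTE FRET peptide read-out (coumarin/fluorescein ratio) after a 1 h development step. IC50 came from concentration-response curves of percent inhibition versus an uninhibited control.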

p38 MAPKγ (MAPK12) = target: T2, p38 MAPKγ (MAPK12) (Homo sapiens, UniProt P53778); test: Enzyme inhibition assay (FRET, Z-LYTE), p38 MAPKγ; format: biochemical; conditions: read-out: Enzyme Inhibition IC50 p38γ
T2 construct: purchased Invitrogen
T2 sequence (P53778 1-367): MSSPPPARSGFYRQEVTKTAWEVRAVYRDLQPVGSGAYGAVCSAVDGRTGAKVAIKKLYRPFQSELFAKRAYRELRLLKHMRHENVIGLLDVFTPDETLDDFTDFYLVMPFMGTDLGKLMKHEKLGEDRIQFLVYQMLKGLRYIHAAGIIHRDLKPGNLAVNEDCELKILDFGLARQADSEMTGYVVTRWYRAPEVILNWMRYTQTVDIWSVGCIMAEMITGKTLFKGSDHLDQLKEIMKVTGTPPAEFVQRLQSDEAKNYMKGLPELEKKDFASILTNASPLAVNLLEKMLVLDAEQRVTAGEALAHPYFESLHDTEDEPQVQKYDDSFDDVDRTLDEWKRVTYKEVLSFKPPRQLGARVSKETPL
Method in brief: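 Recombinant phosphorylated p38 MAPKγ preincubated 2 h at RT with compound in HEPES buffer, then 2 μM FRET peptide and 100 μM ATP added for 1 h; protease development 1 h. Coumarin/fluorescein emission ratio gave phosphorylation; IC50 from concentration-response versus uninhibited control.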

T1 sequence (Q16539 whole entry, canonical isoform): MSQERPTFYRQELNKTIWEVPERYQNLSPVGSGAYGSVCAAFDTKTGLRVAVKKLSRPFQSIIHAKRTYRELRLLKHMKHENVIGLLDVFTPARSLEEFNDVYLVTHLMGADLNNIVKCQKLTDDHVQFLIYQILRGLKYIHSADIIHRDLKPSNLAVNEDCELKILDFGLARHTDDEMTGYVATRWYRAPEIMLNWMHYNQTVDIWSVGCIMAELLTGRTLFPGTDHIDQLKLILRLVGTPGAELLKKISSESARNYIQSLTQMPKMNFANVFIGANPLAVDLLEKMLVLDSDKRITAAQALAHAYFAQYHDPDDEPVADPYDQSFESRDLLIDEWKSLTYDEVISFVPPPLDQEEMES

Row | SMILES | IC50 [1] [nM] | MTT Assay (Viability) 4 h d-U937, percentage loss of cell viability [2] [%] | MTT Assay (Viability) 24 h d-U937, percentage loss of cell viability [2] [%] | IC50 [3] [nM] | EC50 [4] [nM] | IC50 [5] [nM] | IC50 [6] [nM] | IC50 (p38 MAPKγ (MAPK12)) [nM]
1 | CNC(=O)Nc1cc(Oc2ccc(NC(=O)Nc3cc(C(C)(C)C)nn3-c3ccc(C)cc3)c3ncccc23)ccn1 [Example 56, 1-(3-tert-butyl-1-p-tolyl-1H-pyrazol-5-yl)-3-(5-(2-(3-methylureido)pyridin-4-yloxy)quinolin-8-yl)urea] | 4.6 | −25.5 | −28.0 | 8.6 | 0.9 | 12.3 | 52.4 | 194
2 | CNC(=O)Nc1cc(Oc2ccc(NC(=O)Nc3cc(C(C)(C)C)nn3-c3ccc(OC)cc3)c3ncccc23)ccn1 [Example 57, 1-(3-tert-butyl-1-(4-methoxyphenyl)-1H-pyrazol-5-yl)-3-(5-(2-(3-methylureido)pyridin-4-yloxy)quinolin-8-yl)urea] | 3 | −23.6 | −56.2 | 14.9 | 2.3 | 142 | 47.3 | 167
3 | CNC(=O)Nc1cc(Oc2ccc(NC(=O)Nc3cc(C(C)(C)C)nn3-c3ccc(OC)cc3)c3cccnc23)ccn1 [Example 58, 1-(3-tert-butyl-1-(4-methoxyphenyl)-1H-pyrazol-5-yl)-3-(8-(2-(3-methylureido)pyridin-4-yloxy)quinolin-5-yl)urea] | 3.3 | −12.4 | −29.0 | 2.2 | 2.1 | 13.2 | 34.1 | 176
4 | CNC(=O)Nc1cc(Oc2ccc(NC(=O)Nc3cc(C(C)(C)C)nn3-c3ccc(C(=O)OC)cc3)c(Cl)c2Cl)ccn1 [Example 59, methyl 4-(3-tert-butyl-5-(3-(2,3-dichloro-4-(2-(3-methylureido)pyridin-4-yloxy)phenyl)ureido)-1H-pyrazol-1-yl)benzoate] | 1.9 | −24.8 | 0.0 | 2 | 1.6 | 0.9 | 125 | 198
5 | CNC(=O)Nc1cc(Oc2ccc(NC(=O)Nc3cc(C(C)(C)C)nn3-c3ccc(C(=O)O)cc3)c(Cl)c2Cl)ccn1 [Example 60, 4-(3-tert-butyl-5-(3-(2,3-dichloro-4-(2-(3-methylureido)pyridin-4-yloxy)phenyl)ureido)-1H-pyrazol-1-yl)benzoic acid] | 23.5 | −15.4 | −52.4 | 22.7 | 9.2 | > 163 | 10.3 | 12.9
6 | CNC(=O)Nc1cc(Oc2ccc(NC(=O)Nc3cc(C(C)(C)C)nn3-c3ccc(CO)cc3)c3ncccc23)ccn1 [Example 61, 1-(4-(8-(3-(3-tert-butyl-1-(4-hydroxymethylphenyl)-1H-pyrazol-5-yl)ureido)quinolin-5-yloxy)pyridin-2-yl)-3-methylurea] | 235 | −31.9 | −12.9 | 2.5 | 182 | 11.4 | 32.7 | 94
7 | CNC(=O)Nc1cc(Oc2ccc(NC(=O)Nc3cc(C(C)(C)C)nn3-c3ccc(CO)cc3)c3cccnc23)ccn1 [Example 62] | 25.8 | −13.4 | −22.9 | 7.1 | 17.6 | 70.8 | 37.2 | 135
8 | Cc1ccc(-n2nc(C(C)(C)C)cc2NC(=O)Nc2ccc(Oc3ccnc(NC(=O)N(C)C)c3)c(Cl)c2Cl)cc1 [Example 63] | 11.4 | −29.7 | 51.6 | 0.5 | 0.3 | 3 | 28.9 | 140
9 | COc1ccc(-n2nc(C(C)(C)C)cc2NC(=O)Nc2ccc(Oc3ccnc(NC(=O)N(C)C)c3)c(Cl)c2Cl)cc1 [Example 64, 3-(4-(4-(3-(3-tert-butyl-1-(4-methoxyphenyl)-1H-pyrazol-5-yl)ureido)-2,3-dichlorophenoxy)pyridin-2-yl)-1,1-dimethylurea] | 15.1 | −37.2 | 37.2 | 0.4 | 0.3 | 1.5 | 13.3 | 58
10 | COc1ccc(-n2nc(C(C)(C)C)cc2NC(=O)Nc2ccc(Oc3ccnc(NC(=O)NC4CC4)c3)c(Cl)c2Cl)cc1 [Example 65, 1-(4-(4-(3-(3-tert-butyl-1-(4-methoxyphenyl)-1H-pyrazol-5-yl)ureido)-2,3-dichlorophenoxy)pyridin-2-yl)-3-cyclopropylurea] | 3.8 | −4.7 | 20.2 | 2.7 | 2 | 17.5 | 37.7 | 122
11 | COc1ccc(-n2nc(C(C)(C)C)cc2NC(=O)Nc2ccc(Oc3ccnc(NC(=O)NCCO)c3)c(Cl)c2Cl)cc1 [Example 66, 1-(4-(4-(3-(3-tert-butyl-1-(4-methoxyphenyl)-1H-pyrazol-5-yl)ureido)-2,3-dichlorophenoxy)pyridin-2-yl)-3-(2-hydroxyethyl)urea] | 4.9 | 15.0 | 90.3 | 1.1 | 0.3 | 5.5 | 21.6 | 45
12 | COCCNC(=O)Nc1cc(Oc2ccc(NC(=O)Nc3cc(C(C)(C)C)nn3-c3ccc(OC)cc3)c(Cl)c2Cl)ccn1 [Example 67, 1-(4-(4-(3-(3-tert-butyl-1-(4-methoxyphenyl)-1H-pyrazol-5-yl)ureido)-2,3-dichlorophenoxy)pyridin-2-yl)-3-(2-methoxyethyl)urea] | 5.8 | −11.4 | 40.9 | 1.2 | 1.7 | 2 | 27.9 | 67.8
13 | COc1ccc(-n2nc(C(C)(C)C)cc2NC(=O)Nc2ccc(Oc3ccnc(NC(=O)NCCN4CCOCC4)c3)c(Cl)c2Cl)cc1 [Example 68, 1-(4-(4-(3-(3-tert-butyl-1-(4-methoxyphenyl)-1H-pyrazol-5-yl)ureido)-2,3-dichlorophenoxy)pyridin-2-yl)-3-(2-morpholinoethyl)urea] | 10.3 | 11.3 | 73.3 | 1.4 | 0.2 | 3.3 | 18.2 | 137
